Patent US5863913A, “Aromatic compound and pharmaceutical composition” (Kureha Chemical Industry Co., Ltd., priority 1996, dated 1999)

How the values were obtained:
[1] = Oral absorption (amount of compound in rat serum by HPLC, area under curve); format: in vivo, Sprague-Dawley female rats; details: single dosage 160 mg/kg in water, 0.5 to 24 hours, average of 3 rats
Description: Twelve-week-old Sprague-Dawley female rats (3 rats per group) were bred for acclimation for a week. Then, the compounds of the present invention and a reference substrate were dissolved in water, and orally administered to the rats in a single dosage (160 mg/kg). After 0.5 hour, 1 hour, 2 hours, 4 hours, 6 hours, 8 hours, and 24 hours, the amounts of each compound (ng) per 1 ml of serum were measured using HPLC. Curves were obtained from the relation between an elapsed time after administration and the amount of the compound in serum at each elapsed time, respectively, and an average of the areas under the curves was calculated.
As a reference substance, Compound No. 184 disclosed in Japanese Unexamined Patent Publication (Kokai) No. 8-48651 was used. Compound No. 184 corresponds to the compound of the formula (I) wherein R^1 =nBu, A=N, Z=C, R^2 =CO, R^3 =NC4 H8 O, R^4 =H, R^5 =Me, and R^6 =Me.

ICR female mice = experiment: Acute toxicity, single oral dose in mice; details: mouse, in vivo
Description: The aromatic compounds of the formula (I) according to the present invention were orally administered to mice at the dose of 500 mg/kg, but no fatalities were observed over a period of one week.
Five-week-old ICR female mice (5 mice per group) were bred for acclimation for a week. Then, the compounds of the present invention were dissolved in water, and orally administered to the mice in a single dosage (500 mg/kg).

[2] = system: kidney disease model rats; experiment: Action to lower blood pressure in kidney disease model rats (tail cuff); format: in vivo, Sprague-Dawley female rats; details: systolic, average of 8 rats, 20 mg/kg with drinking water, two days after administration; control 210
Description: The compounds of the present invention and the reference substance were administered with drinking water to kidney disease model rats, and the action of lowering the blood pressure was observed. The kidney disease model rats were prepared by a ligature of branches of renal artery in accordance with a conventional method. Namely, the left hilum renalis of Sprague-Dawley female rats was exposed under anesthesia, and one of four secondary branches of the renal artery was left unligated, while the remaining three branches were ligated, respectively. After a week, the hilum renalis (artery, vein, and ureter) of the right kidney were further ligated to thereby prepare rats whose renal function was lowered to approximately 1/8 of the normal function. Each group consisted of eight rats. The drugs to be tested (20 mg/kg) were administered to each administering group, and only water was administered to a control group. Two days after the administration, the systolic blood pressure was measured by the tail cuff method using a blood pressure measuring apparatus (UR5000; Ueda).

| SMILES | AUC at 24 h [1] [ng·h/mL] | Number of deaths/number of survivals (ICR female mice) | Blood Pressure [2] [mmHg] |
| --- | --- | --- | --- |
| CCCCC(=O)N(Cc1ccc(C(=O)OCCCN(C)C)cc1)c1cc(C(=O)N2CCOCC2)ccc1C(C)C [Compound No. 7, 3-N-[[[4-(3'-dimethylamino-1'-propoxycarbonyl)phenyl]methyl]valeramido]-4-i-propylbenzoic acid morpholide] | 14000 | 0/5 | 206 |
| CCCCC(=O)N(Cc1ccc(C(=O)OCCCN(C)C)cc1)c1cc(C(=O)N2CCOCC2)ccc1N(C)C [Compound No. 2, 4-dimethylamino-3-N-[[[4-(3'-dimethylaminopropoxycarbonyl)phenyl]methyl]valeramido]benzoic acid morpholide] | 10700 | 0/5 | 200 |
| CCCCC(=O)N(Cc1ccc(C(=O)OCCN(CC)CC)cc1)c1cc(C(=O)N2CCOCC2)ccc1C(C)C [Compound No. 8, 3-N-[[[4-(2'-diethylaminoethoxycarbonyl)phenyl]methyl]valeramido]-4-i-propylbenzoic acid morpholide] | 24600 | 0/5 | 203 |
| CCCCCCC(=O)N(Cc1ccc(C(=O)O)cc1)c1cc(C(=O)N2CCN(CCC)CC2)ccc1N(C)C [Compound No. 12, 4-dimethylamino-3-N-[[(4-carboxyphenyl)methyl]n-heptanamido]benzoic acid 4'-n-propyl piperazide] | 32200 | 0/5 | 202 |
| CCCCC(=O)N(Cc1ccc(C(=O)O)cc1)c1cc(C(=O)N2CCN(CCC)CC2)ccc1C(C)C [Compound No. 19, 3-[[(4-carboxyphenyl)methyl]valeramido]-4-i-propylbenzoic acid 4'-n-propylpiperazide] | 172000 | 0/5 | 194 |
| CCCCCCC(=O)N(Cc1ccc(C(=O)O)cc1)c1cc(C(=O)N2CCN(C)CC2)ccc1N(C)C [Compound No. 13, 3-[[(4-carboxyohenyl)methyl]n-heptanamido]-4-dimethylaminobenzoic acid 4'-methylpiperazide] | 1460 | 0/5 | 208 |
| CCCCCCC(=O)N(Cc1ccc(C(=O)O)cc1)c1cc(C(=O)N2CCN(CCC)CC2)ccc1C(C)C [Compound No. 20, 3-N-[[(4-carboxyphenyl)methyl]n-heptanamido]-4-i-propylbenzoic acid 4'-n-propylpiperazide] | 183000 | 0/5 | 209 |
| CCCCCCC(=O)N(Cc1ccc(C(=O)O)cc1)c1cc(C(=O)N2CCN(C)CC2)ccc1C(C)C [Compound No. 18, 3-N-[[(4-carboxyphenyl)methyl]n-heptanamido]-4-i-propylbenzoic acid 4'-methylpiperazide] | 12800 | 0/5 | 210 |
| CCCCC(=O)N(Cc1ccc(C(=O)OCCCN)cc1)c1cc(C(=O)N2CCOCC2)ccc1N(C)C [Compound No. 3, 3-N-[[[4-(3'-aminopropoxycarbonyl)phenyl]methyl]valeramido]-4-dimethylaminobenzoic acid morpholide] | 9530 | 0/5 | 203 |
| CCCCC(=O)N(Cc1ccc(C(=O)OCCN2CCOCC2)cc1)c1cc(C(=O)N2CCOCC2)ccc1C(C)C [Compound No. 9, 3-N-[[[4-(2'-morpholinoethoxycarbonyl)phenyl]methyl]valeramido]-i-propylbenzoic acid morpholide] | 50300 | 0/5 | 207 |
| CCCCC(=O)N(Cc1ccc(C(=O)O)cc1)c1cc(C(=O)N2CCN(C)CC2)ccc1C(C)C [Compound No. 15, 3-[[(4-carboxyphenyl)methyl]valeramido]-4-i-propylbenzoic acid 4'-methylpiperazide] | 5670 | 0/5 | 200 |
| CCCCC(=O)N(Cc1ccc(C(=O)OCCN(C)C)cc1)c1cc(C(=O)N2CCOCC2)ccc1C(C)C [Compound No. 6, 3-N-[[[4-(2'-dimethylaminoethoxycarbonyl)phenyl]methyl]valeramido]-4-i-propylbenzoic acid morpholide] | 34700 | 0/5 | 209 |
| CCCCC(=O)N(Cc1ccc(C(=O)OCCN(C)C)cc1)c1cc(C(=O)N2CCOCC2)ccc1N(C)C [Compound No. 1, 4-dimethylamino-3-N-[[[4-(2'-dimethylaminoethoxycarbonyl)phenyl]methyl]valeramido]benzoic acid morpholide] | 13900 | 0/5 | 205 |
